According to ChEMBL document CHEMBL1201862, “PubChem BioAssay data set” (2004):
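Cultured in 96-well plates, cells were exposed to test compound for 48 hours across five concentrations. GI50 marks 50% less growth.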 Calls of active or inactive are those of the source. Cut-off read from the data, not from the text of the source: active = GI50 up to about 1.1 µM and inactive = higher.

Key:
Test in all cases: NCI tumour cell line growth inhibition, 48 h
CCRF-CEM = test system: CCRF-CEM
COLO 205 = test system: COLO 205
HCT-116 = test system: HCT-116
HT-29 = test system: HT-29
MDA-MB-435 = test system: MDA-MB-435
MOLT-4 = test system: MOLT-4
Malme-3M = test system: Malme-3M
NCI/ADR-RES = test system: NCI/ADR-RES
PC-3 = test system: PC-3
SK-MEL-2 = test system: SK-MEL-2
SK-MEL-5 = test system: SK-MEL-5
SK-OV-3 = test system: SK-OV-3
SNB-19 = test system: SNB-19
SR = test system: SR
UACC-62 = test system: UACC-62
UO-31 = test system: UO-31
K562 = test system: K562
LOX IMVI = test system: LOX IMVI
SF-539 = test system: SF-539
TK-10 = test system: TK-10

Measured: GI50

O=C1c2ccccc2C(=O)N1CC(CN1C(=O)c2ccccc2C1=O)(C(=O)OCc1ccccc1)C(=O)OCc1ccccc1
inactive: CCRF-CEM 6.11 µM | COLO 205 > 100 µM | HCT-116 > 100 µM | HT-29 > 100 µM | MDA-MB-435 > 100 µM | MOLT-4 7.36 µM | Malme-3M > 100 µM | NCI/ADR-RES > 100 µM | PC-3 > 100 µM | SK-MEL-2 > 100 µM | SK-MEL-5 > 100 µM | SK-OV-3 > 100 µM | SNB-19 > 100 µM | SR > 100 µM | UACC-62 > 100 µM | UO-31 > 100 µM

NC(=O)Nc1ccc(C(=O)NCCCNC(=O)c2ccc(NC(N)=O)cc2)cc1
inactive: CCRF-CEM > 100 µM | COLO 205 > 100 µM | HCT-116 > 100 µM | HT-29 > 100 µM | K562 > 100 µM | LOX IMVI > 100 µM | MDA-MB-435 > 100 µM | MOLT-4 > 100 µM | Malme-3M > 100 µM | NCI/ADR-RES > 100 µM | PC-3 > 100 µM | SF-539 > 100 µM | SK-MEL-2 > 100 µM | SK-MEL-5 > 100 µM | SNB-19 > 100 µM | SR > 100 µM | TK-10 > 100 µM | UACC-62 > 100 µM | UO-31 > 100 µM

OCC(CO)CC1COc2ccccc2O1 (centres undefined)
inactive: CCRF-CEM > 10 µM | COLO 205 > 10 µM | HCT-116 > 10 µM | HT-29 > 10 µM | K562 > 10 µM | LOX IMVI > 10 µM | MDA-MB-435 > 10 µM | MOLT-4 > 10 µM | Malme-3M > 10 µM | NCI/ADR-RES > 10 µM | PC-3 > 10 µM | SF-539 > 10 µM | SK-MEL-2 > 10 µM | SK-MEL-5 > 10 µM | SK-OV-3 > 10 µM | SNB-19 > 10 µM | SR > 10 µM | TK-10 > 10 µM | UACC-62 > 10 µM | UO-31 > 10 µM

CCOC(=O)N1CCN(C(=O)Nc2cccc3ccccc23)CC1
inactive: CCRF-CEM > 10 µM | COLO 205 > 10 µM | HCT-116 > 10 µM | HT-29 > 10 µM | K562 > 10 µM | LOX IMVI > 10 µM | MDA-MB-435 > 10 µM | MOLT-4 > 10 µM | Malme-3M > 10 µM | NCI/ADR-RES > 10 µM | PC-3 > 10 µM | SF-539 > 10 µM | SK-MEL-2 > 10 µM | SK-MEL-5 > 10 µM | SK-OV-3 > 10 µM | SNB-19 > 10 µM | SR > 10 µM | TK-10 > 10 µM | UACC-62 > 10 µM | UO-31 > 10 µM

CC(C)C1OC(=O)/C=C/C=C/C=C/C=C/C=C/CC(O)C(C)C(O)CC(O)CC(O)CC(O)CC(O)CC(O)CC(O)/C=C/C1C (centres undefined)
inactive: CCRF-CEM > 100 µM | HT-29 > 100 µM | K562 > 100 µM | MDA-MB-435 > 100 µM | MOLT-4 > 100 µM | Malme-3M 70.5 µM | NCI/ADR-RES > 100 µM | PC-3 > 100 µM | SF-539 > 100 µM | SK-MEL-2 > 100 µM | SK-OV-3 > 100 µM | SNB-19 > 100 µM | SR > 100 µM | TK-10 > 100 µM | UACC-62 > 100 µM | UO-31 > 100 µM

CC(=O)OC/C=C\Cn1nc(Br)c(=O)[nH]c1=O
inactive: CCRF-CEM 5.24 µM | COLO 205 13.5 µM | K562 9.33 µM | LOX IMVI 6.75 µM | MDA-MB-435 14.6 µM | Malme-3M 14.3 µM | NCI/ADR-RES 17.3 µM | PC-3 13.2 µM | SF-539 11.2 µM | SK-MEL-2 13.1 µM | SK-MEL-5 14.6 µM | SNB-19 18.7 µM | SR 4.06 µM | TK-10 19.1 µM | UO-31 16.4 µM

CCCNC1=NC(C)=CSC(Nc2ccccc2)=C1C#N
inactive: COLO 205 > 100 µM | HCT-116 > 100 µM | K562 > 100 µM | MDA-MB-435 > 100 µM | MOLT-4 > 100 µM | Malme-3M > 100 µM | NCI/ADR-RES > 100 µM | PC-3 > 100 µM | SF-539 > 100 µM | SK-MEL-2 > 100 µM | SK-MEL-5 > 100 µM | SK-OV-3 > 100 µM | SNB-19 > 100 µM | SR > 100 µM | TK-10 > 100 µM | UACC-62 > 100 µM | UO-31 > 100 µM

C=CCN1C(=O)/C(=C/c2cccs2)N=C1SC1OC(COC(=O)c2ccccc2)C(OC(=O)c2ccccc2)C1OC(=O)c1ccccc1 (centres undefined)
inactive: CCRF-CEM 53.5 µM | COLO 205 > 100 µM | K562 > 100 µM | LOX IMVI > 100 µM | MDA-MB-435 > 100 µM | MOLT-4 > 100 µM | Malme-3M > 100 µM | NCI/ADR-RES > 100 µM | PC-3 > 100 µM | SF-539 > 100 µM | SK-MEL-2 > 100 µM | SK-MEL-5 > 100 µM | SK-OV-3 > 100 µM | SR > 100 µM | TK-10 > 100 µM | UACC-62 > 100 µM

COC(=O)NCCc1n[nH]c2c1C(=O)C=C(N1CCOCC1)C2=O
inactive: CCRF-CEM > 100 µM | COLO 205 > 100 µM | HCT-116 > 100 µM | HT-29 > 100 µM | K562 > 100 µM | LOX IMVI > 100 µM | MDA-MB-435 > 100 µM | MOLT-4 > 100 µM | Malme-3M > 100 µM | NCI/ADR-RES > 100 µM | PC-3 > 100 µM | SF-539 > 100 µM | SK-MEL-2 > 100 µM | SK-MEL-5 > 100 µM | SK-OV-3 > 100 µM | SNB-19 > 100 µM | SR > 100 µM | TK-10 > 100 µM | UACC-62 > 100 µM | UO-31 > 100 µM
